From patent US10590129B2 (Incozen Therapeutics Pvt. Ltd., priority 2010, dated 2020)

Key:
[1] = target: Met kinase (Homo sapiens, UniProt P08581); experiment: MET kinase assay (colorimetric determination of c-Met kinase activity, HTScan Met Kinase Assay Kit); type: biochemical; design: purchased Cell Signalling Technology, Beverly, Mass; conditions: for IC50: c-Met kinase
Source text: 1. MET Kinase Assay Protocol:
Colorimetric Determination of c-Met Kinase Activity
The receptor tyrosine kinase c-Met is a heterodimeric transmembrane glycoprotein involved in several cellular processes that aid in tumor progression. Phosphorylation of the tyrosine residues in the c-Met kinase domain is critical for its activity and the resulting down-stream effects. The colorimetric assay allows detection of the phosphorylated form of a biotinylated peptide upon activation of human recombinant Met kinase.
MET Kinase Assay Protocol:
c-Met Kinase activity shall be determined using an HTScan® Met Kinase Assay Kit (Cell Signalling Technology, Beverly, Mass.) with modifications. All incubations are carried out at room temperature. Briefly, 12.5 μl of a 4× reaction cocktail (DTT/Kinase buffer containing appropriate quantity of human Met kinase) is added to each well of a 96-well plate containing 12.5 μl pre-diluted compound of interest and incubated for 5 minutes. After the initial incubation, 25 μl/well of 2×ATP/biotinylated peptide is added and incubated for an additional 30 minutes. The reaction is terminated by the addition of 50 μl/well stop buffer (50 mM EDTA, pH 8.0). The reaction mixture (25 μl/well) is then transferred to a streptavidin coated plate (Perkin Elmer, Cat#4009-0010) containing 75 μl dH2O and incubated for 60 minutes. The plate is washed with 200 μl/well wash buffer (1×PBS, 0.05% Tween-20). After washing, 100 μl/well phospho-tyrosine mAb (1:1000 in wash buffer containing 1% BSA) is added and incubated for 60 minutes. After another round of washes, 100 μl/well europium labelled anti-mouse IgG (1:500 in wash buffer containing 1% BSA) is added and incubated for an additional 30 minutes. Following additional washes, 100 μl/well Delfia® enhancement solution (Perkin Elmer, Cat#1244-105) is added and incubated for 45 minutes. Florescence is measured on a microplate reader (BMG Labtech., Germany) at 340 nm (excitation) and 615 nm (emission) for calculating % inhibition. Data generated can be analyzed further using Graphpad Prism (Graphpad software, San Diego Calif.) for determination of IC50.

[2] = test system: MKN-45 cells; experiment: Inhibition of MKN-45 proliferation (MTT); type: cell-based, human; conditions: Homo sapiens, MKN-45, MKN-45 proliferation
Outline: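 High-Met human gastric adenocarcinoma MKN-45 cells plated in complete growth medium, compounds added next day and viability read 3 days later by MTT dye reduction.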

Chain of Met kinase (P08581 25-1390): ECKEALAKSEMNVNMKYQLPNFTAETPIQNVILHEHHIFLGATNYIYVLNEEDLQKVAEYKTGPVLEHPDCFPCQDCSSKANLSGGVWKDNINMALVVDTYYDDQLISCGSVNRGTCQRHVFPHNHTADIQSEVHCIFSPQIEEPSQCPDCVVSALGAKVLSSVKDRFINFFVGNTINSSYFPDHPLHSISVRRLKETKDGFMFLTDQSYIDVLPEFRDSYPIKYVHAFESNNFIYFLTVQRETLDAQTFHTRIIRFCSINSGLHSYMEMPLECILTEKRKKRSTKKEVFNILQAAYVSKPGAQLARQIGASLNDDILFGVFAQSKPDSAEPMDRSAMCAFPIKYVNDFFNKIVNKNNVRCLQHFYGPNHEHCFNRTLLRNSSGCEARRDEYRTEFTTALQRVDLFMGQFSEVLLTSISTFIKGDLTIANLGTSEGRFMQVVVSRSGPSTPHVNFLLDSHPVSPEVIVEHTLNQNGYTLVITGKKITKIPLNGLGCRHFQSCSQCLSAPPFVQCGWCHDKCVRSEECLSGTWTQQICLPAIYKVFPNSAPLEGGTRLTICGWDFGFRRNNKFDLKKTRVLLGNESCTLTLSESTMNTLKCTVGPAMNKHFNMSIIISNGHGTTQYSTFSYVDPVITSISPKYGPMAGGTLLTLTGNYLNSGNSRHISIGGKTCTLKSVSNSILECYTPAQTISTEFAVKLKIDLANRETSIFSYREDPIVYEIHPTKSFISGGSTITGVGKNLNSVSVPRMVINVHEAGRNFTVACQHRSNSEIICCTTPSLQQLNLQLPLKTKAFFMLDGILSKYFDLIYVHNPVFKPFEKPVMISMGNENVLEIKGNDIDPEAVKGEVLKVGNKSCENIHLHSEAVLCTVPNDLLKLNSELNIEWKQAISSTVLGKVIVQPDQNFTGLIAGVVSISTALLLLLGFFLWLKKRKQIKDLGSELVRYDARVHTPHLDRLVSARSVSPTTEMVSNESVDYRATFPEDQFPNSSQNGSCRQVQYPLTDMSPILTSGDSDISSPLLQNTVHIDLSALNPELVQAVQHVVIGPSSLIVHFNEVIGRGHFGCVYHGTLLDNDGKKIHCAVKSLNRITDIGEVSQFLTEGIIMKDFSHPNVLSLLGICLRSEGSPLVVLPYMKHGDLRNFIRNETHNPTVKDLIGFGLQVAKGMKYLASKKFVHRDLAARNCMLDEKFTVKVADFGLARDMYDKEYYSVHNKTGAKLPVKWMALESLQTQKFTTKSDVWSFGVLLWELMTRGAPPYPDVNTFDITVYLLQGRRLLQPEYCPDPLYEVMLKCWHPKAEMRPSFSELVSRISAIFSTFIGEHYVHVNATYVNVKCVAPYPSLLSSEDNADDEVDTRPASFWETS

Structure (SMILES)	melting point	inhibition at 1 µM [1]	IC50 [1]	inhibition at 0.1 µM [2]	inhibition at 1 µM [2]	GI50 [2]
O=C(O)c1ccc(-c2ccc3nnn(Cc4ccc5ncccc5c4)c3n2)cc1F [Ex 13, 2-Fluoro-4-(3-(quinolin-6-ylmethyl)-3H-[1,2,3]triazolo[4,5-b]pyridin-5-yl)benzoic acid]	254 to 257 °C	75 to 100%	50 to 100 nM	–	–	–
O=C(NCCCN1CCCCC1)c1ccc(-c2ccc3nnn(Cc4ccc5ncccc5c4)c3n2)cc1F [Ex 124, 2-Fluoro-N-(3-(piperidin-1-yl)propyl)-4-(3-(quinolin-6-ylmethyl)-3H-[1,2,3]triazolo[4,5-b]pyridin-5-yl)benzamide]	135 to 137 °C	–	–	75 to 100%	50 to 75%	–
c1cnc2ccc(Cn3cnc4ccc(-c5cn[nH]c5)nc43)cc2c1 [Ex 147, 6-((5-(1H-Pyrazol-4-yl)-3H-imidazo[4,5-b]pyridin-3-yl)methyl)quinoline]	214 to 216 °C	–	–	–	< 25%	–
Cn1cc(-c2ccc3ncn(Cc4ccc5ncccc5c4)c3n2)cn1 [Ex 148, 6-((5-(1-Methyl-1H-pyrazol-4-yl)-3H-imidazo[4,5-b]pyridin-3-yl)methyl)quinoline]	150 to 152 °C	–	–	–	< 25%	–
OCCn1cc(-c2ccc3ncn(Cc4ccc5ncccc5c4)c3n2)cn1 [Ex 150, 2-(4-(3-(Quinolin-6-ylmethyl)-3H-imidazo[4,5-b]pyridin-5-yl)-1H-pyrazol-1-yl)ethanol]	160 to 163 °C	–	–	–	< 25%	–
OCCNc1ccc2nnn(Cc3ccc4ncccc4c3)c2n1 [Ex 151, 2-(3-(Quinolin-6-ylmethyl)-3H-[1,2,3]triazolo[4,5-b]pyridin-5-ylamino)ethanol]	184 to 186 °C	–	–	–	50 to 75%	–
c1cnc2ccc(Cn3nnc4ccc(-n5ccnc5)nc43)cc2c1 [Ex 152, 6-((5-(1H-Imidazol-1-yl)-3H-[1,2,3]triazolo[4,5-b]pyridin-3-yl)methyl)quinoline]	227 to 230 °C	–	–	–	–	150 to 500 nM
c1cnc2ccc(Cn3nnc4ccc(-c5cnn(C6CCNCC6)c5)nc43)cc2c1 [Ex 157, 6-((5-(1-(Piperidin-4-yl)-1H-pyrazol-4-yl)-3H-[1,2,3]triazolo[4,5-b]pyridin-3-yl)methyl)quinoline]	188 to 191 °C	–	–	–	–	< 1000 nM
Cl.Fc1ccc(F)c(Cn2nnc3ccc(-c4cnn(C5CCNCC5)c4)nc32)c1Cl [Ex 167, 3-(2-Chloro-3,6-difluorobenzyl)-5-(1-(piperidin-4-yl)-1H-pyrazol-4-yl)-3H-[1,2,3]triazolo[4,5-b]pyridine hydrochloride]	85 to 87 °C	–	–	–	25 to 50%	–
Nc1ncc(-c2ccc3nnn(Cc4ccc5ncccc5c4)c3n2)cn1 [Ex 180, 5-(3-(Quinolin-6-ylmethyl)-3H-[1,2,3]triazolo[4,5-b]pyridin-5-yl)pyrimidin-2-amine]	244 to 246 °C	–	–	< 25%	25 to 50%	–
O=Cc1cc(-c2ccc3nnn(Cc4ccc5ncccc5c4)c3n2)cs1 [Ex 182, 4-(3-(Quinolin-6-ylmethyl)-3H-[1,2,3]triazolo[4,5-b]pyridin-5-yl)thiophene-2-carbaldehyde]	195 to 197 °C	–	–	< 25%	25 to 50%	–
COc1ncc(-c2ccc3nnn(Cc4ccc5ncccc5c4)c3n2)cn1 [Ex 183, 6-((5-(2-Methoxypyrimidin-5-yl)-3H-[1,2,3]triazolo[4,5-b]pyridin-3-yl)methyl)quinoline]	201 to 203 °C	–	–	< 25%	–	–
c1cnc2ccc(Cn3nnc4ccc(-c5ccc6c(c5)OCO6)nc43)cc2c1 [Ex 184, 6-((5-(Benzo[d][1,3]dioxol-5-yl)-3H-[1,2,3]triazolo[4,5-b]pyridin-3-yl)methyl)quinoline]	179 to 181 °C	–	–	< 25%	< 25%	–
c1cnc2ccc(Cn3nnc4ccc(-c5ccc6c(c5)CCO6)nc43)cc2c1 [Ex 185, 6-((5-(2,3-Dihydrobenzofuran-5-yl)-3H-[1,2,3]triazolo[4,5-b]pyridin-3-yl)methyl) quinoline]	131 to 133 °C	–	–	< 25%	< 25%	–
Nc1ccc(-c2ccc3nnn(Cc4ccc5ncccc5c4)c3n2)cn1 [Ex 186, 5-(3-(Quinolin-6-ylmethyl)-3H-[1,2,3]triazolo[4,5-b]pyridin-5-yl)pyridin-2-amine]	194 to 197 °C	–	–	< 25%	< 25%	–
FCCn1cc(-c2ccc3nnn(Cc4ccc5ncccc5c4)c3n2)cn1 [Ex 187, 6-((5-(1-(2-fluoroethyl)-1H-pyrazol-4-yl)-3H-[1,2,3]triazolo[4,5-b]pyridin-3-yl)methyl)quinoline]	168 to 170 °C	–	–	75 to 100%	–	≤ 50 nM
OCc1cc(-c2ccc3nnn(Cc4ccc5ncccc5c4)c3n2)cs1 [Ex 188, (4-(3-(Quinolin-6-ylmethyl)-3H-[1,2,3]triazolo[4,5-b]pyridin-5-yl)thiophen-2-yl) methanol]	188 to 191 °C	–	–	75 to 100%	–	50 to 150 nM
CCc1n[nH]c2cc(-c3ccc4nnn(Cc5ccc6ncccc6c5)c4n3)ccc12 [Ex 191, 6-((5-(3-ethyl-1H-indazol-6-yl)-3H-[1,2,3]triazolo[4,5-b]pyridin-3-yl)methyl)quinoline]	211 to 213 °C	–	–	25 to 50%	25 to 50%	–
Cc1csc(-c2ccc3nnn(Cc4ccc5ncccc5c4)c3n2)c1 [Ex 193, 6-((5-(4-Methylthiophen-2-yl)-3H-[1,2,3]triazolo[4,5-b]pyridin-3-yl)methyl)quinoline]	153 to 156 °C	–	–	< 25%	50 to 75%	–
Cc1ccc(-c2ccc3nnn(Cc4ccc5ncccc5c4)c3n2)s1 [Ex 194, 6-((5-(5-Methylthiophen-2-yl)-3H-[1,2,3]triazolo[4,5-b]pyridin-3-yl)methyl)quinoline]	154 to 156 °C	–	–	< 25%	50 to 75%	–
c1cnc2ccc(Cn3nnc4ccc(-c5ccc(N6CCOCC6)nc5)nc43)cc2c1 [Ex 195, 4-(5-(3-(Quinolin-6-ylmethyl)-3H-[1,2,3]triazolo[4,5-b]pyridin-5-yl)pyridin-2-yl)morpholine]	183 to 185 °C	–	–	25 to 50%	50 to 75%	–
c1cnc2ccc(Cn3nnc4ccc(-c5ccc(N6CCCCC6)nc5)nc43)cc2c1 [Ex 196, 6-((5-(6-(Piperidin-1-yl)pyridin-3-yl)-3H-[1,2,3]triazolo[4,5-b]pyridin-3-yl)methyl)quinoline]	133 to 135 °C	–	–	< 25%	< 25%	–
CCn1cc(-c2ccc3nnn(Cc4ccc5ncccc5c4)c3n2)cn1 [Ex 197, 6-((5-(1-Ethyl-1H-pyrazol-4-yl)-3H-[1,2,3]triazolo[4,5-b]pyridin-3-yl)methyl)quinoline]	132 to 134 °C	–	–	25 to 50%	–	–
CC(C)n1cc(-c2ccc3nnn(Cc4ccc5ncccc5c4)c3n2)cn1 [Ex 198, 6-((5-(1-Isopropyl-1H-pyrazol-4-yl)-3H-[1,2,3]triazolo[4,5-b]pyridin-3-yl)methyl)quinoline]	126 to 128 °C	–	–	< 25%	–	–
CC(C)Cn1cc(-c2ccc3nnn(Cc4ccc5ncccc5c4)c3n2)cn1 [Ex 199, 6-((5-(1-Isobutyl-1H-pyrazol-4-yl)-3H-[1,2,3]triazolo[4,5-b]pyridin-3-yl)methyl)quinoline]	160 to 163 °C	–	–	< 25%	–	–
C[C@@H](c1ccc2ncccc2c1)n1nnc2ccc(-c3ccc(C(N)=O)c(Cl)c3)nc21 [Ex 221, (−)-2-chloro-4-(3-(1-(quinolin-6-yl)ethyl)-3H-[1,2,3]triazolo[4,5-b]pyridin-5-yl) benzamide]	–	75 to 100%	50 to 100 nM	50 to 75%	–	≤ 50 nM
C[C@H](c1ccc2ncccc2c1)n1nnc2ccc(-c3ccc(C(N)=O)c(Cl)c3)nc21 [Ex 222, (+)-2-chloro-4-(3-(1-(quinolin-6-yl)ethyl)-3H-[1,2,3]triazolo[4,5-b]pyridin-5-yl) benzamide]	–	50 to 75%	250 to 1000 nM	25 to 50%	–	–
